Results taken from patent publication US20070010543A1, “Compositions and methods for treating gastrointestinal hypomotility and associated disorders” (Dynogen Pharmaceuticals, Inc., priority 2005, published 2007).
Several values for one entry are separate records, joined by “and”; a condition that tells them apart may be missing. Identical values can stand only once.

System: guinea-pig distal colon
Assay: Fecal pellet propulsion velocity assay, guinea pig ex vivo colon preparation
Text: Hartley guinea pigs of either sex (Charles River Laboratories, Wilmington, Mass.) weighing approximately 300 grams were used in all experiments described herein. Segments of distal colon were taken from guinea pigs following euthanasia by isoflurane anesthesia and exsanguination. Colon segments were immediately placed on ice-cold physiological saline solution (PSS, see below for composition).
PSS was made daily and consisted of (in mM) 119 NaCl, 4.7 KCl, 24 NaHCO3, 1.2 KH2PO4, 2.5 CaCl2, 1.2 MgSO4, 11 glucose, and aerated with 95% O2-5% CO2 to obtain pH 7.4. Morphine (Sigma Chemical Company, St. Louis, Mo.), Naltrexone (Sigma Chemical Company, St. Louis, Mo.) or DDP733 (Dynogen Pharmaceuticals, Inc., Waltham, Mass.) were dissolved as stock solutions in distilled water.
Data are reported as means±SEM. Data were analyzed by t-test.
Segments of guinea-pig distal colon (5-8 cms long) were pinned out in an organ bath with pins attached to small pieces of mesentery adhering to the wall of the gut at intervals of approximately 1.5-2 cms. Colonic segments were superfused with oxygenated PSS warmed to about 37° C. An equilibration period was allowed, during which time the gut developed spontaneous tone and emptied its luminal contents. Following the equilibration period, a PE-50 catheter was inserted approximately 1 to 2 cms into the lumen via the anal end of the colon. Oxygenated PSS was perfused intraluminally at a rate of about 0.15 ml/min for a period of 30 minutes. At this point, a dried fecal pellet that had been coated with a synthetic polymer to maintain its structural integrity, was placed into the oral end of the colon, and the intraluminal catheter was advanced to the distal edge of the fecal pellet. The amount of time for the fecal pellet to move about 2 to 3 cms in the aboral direction was measured within the center of the colon segment using a custom computer program and digital video camera. A total of three motility trials were conducted in each experiment under baseline conditions, with a five-minute recovery period between each trial. Motility rates from these first three trials were averaged together to give a measure of baseline motility. After the third baseline trial, a 30-minute inter-trial equilibration period was allowed
At the end of the equilibration period, a fecal pellet was inserted into the oral end of the colon, and motility rate was assessed as before. A total of three motility trials were performed, with a 5-minute recovery period between each trial. Intraluminal infusion of naltrexone or DDP733 was resumed after each trial. Each colon was exposed to only a single concentration of naltrexone or DDP733.
Morphine (0.01 to 10 μM) was added to the superfusate (bath solution) during the inter-trial equilibration period, e.g., 15 minutes prior to the start of motility trials. Morphine remained in the bath solution for the remainder of the experiment. At the end of the equilibration period, a fecal pellet was inserted into the oral end of the colon, and motility rate was assessed as before. A total of three motility trials were performed, with a 5-minute recovery period between each trial. Each colon was exposed to only a single concentration of morphine.
Naltrexone was also infused intraluminally at this point. […] At the end of the equilibration period, a fecal pellet was inserted into the oral end of the colon, and motility rate was assessed as before.

| Compound | effect on morphine-induced decrease in motility (in words, summary of Table II) | Motility % control (Morphine 0.10 μM in bath, single preparations) | effect on motility (in words, summary of Table II) |
| --- | --- | --- | --- |
| O=C(N[C@H]1CN2CCC1CC2)c1c[nH]c2ccsc2c1=O [DDP733, (R)-N-1-azabicyclo[2.2.2]oct-3-yl-4,7-dihydro-7-oxothieno[3,2-b]pyridine-6-carboxamide] | diminished | – | – |
| CN1CC[C@]23c4c5ccc(O)c4O[C@H]2[C@@H](O)C=C[C@H]3[C@H]1C5 [Morphine] | – | 72 % control and 57 % control and 73 % control and 78 % control | decrease in motility |
